In one data set the target is T1, rat mGluR5 receptor (Rattus norvegicus, UniProt P31424).
T1 construct: expressed in transfected cells
The experiment in a line: mGluR5 assay on HEK-expressing rat mGluR5 (fluorescent cell based Ca2+ mobilization assay). To be noted: HEK-293 cells stably expressing rat mGluR5; no co-addition of glutamate; mean of at least three independent experiments in duplicate; read-out: Ca++ Flux (mean EC50). As to the method:
Positive functional expression of HEK-293 cells stably expressing rat mGluR5 receptor was determined by measuring intracellular Ca^2+ changes using a Fluorometric Imaging Plate Reader (FLIPR, Molecular Devices, Sunnyvale, Calif.) in response to glutamate or selective known mGluR5 agonists and antagonists. Rat mGluR5 RT-PCR products in HEK-293 cells were sequenced and found 100% identical to rat mGluR5 Genbank reference sequence (NM_017012). HEK-293 cells expressing rmGluR5 were maintained in media containing DMEM, dialyzed Fetal Bovine Serum (10%), Glutamax™ (2 mM), Penicillin (100 units/ml), Streptomycin (100 μg/ml), Geneticin (100 μg/ml) and Hygromycin-B (40 μg/ml) at 37° C./5% CO2.
After one day of incubation, cells were washed with assay buffer containing: 142 mM NaCl, 6 mM KCl, 1 mM […], 1 mM CaCl2, 20 mM HEPES, 1 g/L glucose, 0.125 mM sulfinpyrazone, pH 7.4. After 60 min of loading with 4 uM Fluo-4 (TefLabs, Austin, Tex.), the cells were washed three times with 50 μl of PBS Buffer and resuspended in 45 μl of assay Buffer. The plates were then transferred to a Fluorometric Imaging Plate Reader (FLIPR, Molecular Devices, Sunnyvale, Calif.) for the assessment of intracellular calcium flux. After monitoring the baseline fluorescence for 10 seconds, increasing concentrations of representative compound (from 0.01 to 60 μM) of the present invention diluted in Assay Buffer (15 μl of 4× dilutions) was added to the cell. The final DMSO concentration in the assay was 0.3%. In each experiment, fluorescence was then monitored as a function of time for 3 minutes and the data analyzed using Microsoft Excel and GraphPad Prism. Each data point was also measured two times.
Under these experimental conditions, this HEK-rat mGluR5 cell line is able to directly detect positive allosteric modulators without the need of co-addition of glutamate or mGluR5 agonist.
The concentration-response curves of representative compounds of the present invention were generated using the Prism GraphPad software (Graph Pad Inc, San Diego, USA). The curves were fitted to a four-parameter logistic equation:
(Y=Bottom+(Top−Bottom)/(1+10̂((LogEC50−X)*Hill Slope)
allowing determination of EC50 values.
The Table 1 below represents the mean EC50 obtained from at least three independent experiments of selected molecules performed in duplicate.
A general note: Calcium assays in cells follow changes in intracellular calcium, usually with a dye or a luminescent sensor.

Some results are limits rather than exact numbers.

T1 sequence (P31424 21-1171 isoform P31424-2 limits assumed): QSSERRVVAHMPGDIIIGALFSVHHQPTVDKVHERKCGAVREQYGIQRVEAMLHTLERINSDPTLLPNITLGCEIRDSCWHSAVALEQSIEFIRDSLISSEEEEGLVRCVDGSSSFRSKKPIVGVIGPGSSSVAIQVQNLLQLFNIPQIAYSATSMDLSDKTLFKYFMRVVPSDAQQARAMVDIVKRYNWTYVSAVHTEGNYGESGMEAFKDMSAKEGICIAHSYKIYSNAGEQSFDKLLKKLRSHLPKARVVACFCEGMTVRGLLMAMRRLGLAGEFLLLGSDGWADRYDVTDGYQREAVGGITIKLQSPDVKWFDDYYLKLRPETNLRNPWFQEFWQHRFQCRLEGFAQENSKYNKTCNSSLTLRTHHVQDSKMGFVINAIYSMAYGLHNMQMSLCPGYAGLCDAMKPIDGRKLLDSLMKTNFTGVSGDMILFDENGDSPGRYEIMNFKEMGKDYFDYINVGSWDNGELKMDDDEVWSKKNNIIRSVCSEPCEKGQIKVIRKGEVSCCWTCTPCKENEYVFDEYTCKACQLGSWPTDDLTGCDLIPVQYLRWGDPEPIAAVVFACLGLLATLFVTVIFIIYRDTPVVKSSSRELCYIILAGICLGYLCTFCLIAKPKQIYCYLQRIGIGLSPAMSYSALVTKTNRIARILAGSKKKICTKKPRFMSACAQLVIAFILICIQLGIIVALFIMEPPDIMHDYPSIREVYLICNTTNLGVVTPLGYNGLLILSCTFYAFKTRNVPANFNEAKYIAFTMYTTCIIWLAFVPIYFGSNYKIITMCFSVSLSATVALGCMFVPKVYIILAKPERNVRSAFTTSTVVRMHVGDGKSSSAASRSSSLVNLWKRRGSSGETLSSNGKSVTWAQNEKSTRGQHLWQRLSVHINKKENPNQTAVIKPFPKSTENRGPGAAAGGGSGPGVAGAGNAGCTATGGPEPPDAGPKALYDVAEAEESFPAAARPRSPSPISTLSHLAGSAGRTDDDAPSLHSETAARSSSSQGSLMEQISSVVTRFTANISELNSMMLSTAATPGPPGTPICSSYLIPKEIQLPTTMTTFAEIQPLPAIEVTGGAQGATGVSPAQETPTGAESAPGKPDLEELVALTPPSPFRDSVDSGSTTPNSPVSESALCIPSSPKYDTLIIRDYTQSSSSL

Regarding `O=C(c1ccc(F)cc1)N1CCC[C@H](c2noc(-c3cc(C(F)(F)F)c[nH]3)n2)C1` [Example 76, (4-Fluoro-phenyl)-{(S)-3-[5-(4-trifluoromethyl-1H-pyrrol-2-yl)-[1,2,4]oxadiazol-3-yl]-piperidin-1-yl}-methanone], the melting point (in general, the temperature, or range, at which the solid turns liquid) was 183.5 °C. Besides, the EC50 (in general, the concentration needed to bring the measured effect to its halfway point) at rat mGluR5 receptor is greater than 10 µM. For `O=C(c1ccc(F)cc1)N1CCC[C@H](c2nc(-c3cc(F)c[nH]3)no2)C1` [Example 50, (4-Fluoro-phenyl)-{(S)-3-[3-(4-fluoro-1H-pyrrol-2-yl)-[1,2,4]oxadiazol-5-yl]-piperidin-1-yl}-methanone] the same measures were 146.5 to 147.2 °C and less than 1 µM.

With `O=C(c1ccc(F)nc1)N1CCC[C@H](c2nc(-c3ccc[nH]3)no2)C1` [Example 4, (6-Fluoro-pyridin-3-yl)-{(S)-3-[3-(1H-pyrrol-2-yl)-[1,2,4]oxadiazol-5-yl]-piperidin 1-yl}-methanone], the melting point is 131 to 132 °C. The 50% effective concentration (EC50) on rat mGluR5 receptor was in the range of 1 to 10 µM. For `O=C(c1ccc(F)nc1)N1CCCC(c2noc(-c3cc4ccccc4[nH]3)n2)C1` (centres unmarked) [Example 23, (6-Fluoro-pyridin-3-yl)-{3-[5-(1H-indol-2-yl)-[1,2,4]oxadiazol-3-yl]-piperidin-1-yl}-methanone] the same measures were 163.1 to 164.3 °C and 1 to 10 µM. For `O=C(c1ccc(F)cc1)N1CCC[C@@H](c2nc(-c3ccc[nH]3)no2)C1` [Example 37, (4-Fluoro-phenyl)-{(R)-3-[3-(1H-pyrrol-2-yl)-[1,2,4]oxadiazol-5-yl]-piperidin-1-yl}-methanone] the same measures were 132 to 133 °C and 1 to 10 µM.

The compound `N#Cc1c[nH]c(-c2nc([C@H]3CCCN(C(=O)c4ccc(F)cc4)C3)no2)c1` [Example 72, (4-Fluoro-phenyl)-{(S)-3-[5-(4-cyano-1H-pyrrol-2-yl)-[1,2,4]oxadiazol-3-yl]-piperidin-1-yl}-methanone] yielded a melting point of 204.8 to 205.6 °C. Further, the EC50 on rat mGluR5 receptor fell in the range of 1 to 10 µM.

`O=C(c1ccc(F)nc1)N1CCC[C@H](c2noc(-c3cc(C(F)(F)F)c[nH]3)n2)C1` [Example 78, (6-Fluoro-pyridin-3-yl)-{(S)-3-[5-(4-trifluoromethyl-1H-pyrrol-2-yl)-[1,2,4]oxadiazol-3-yl]-piperidin-1-yl}-methanone] displayed a melting point of 165.7 °C. Regarding `O=C(c1ccc(F)cc1)N1CCC[C@H](c2noc(-c3ccc[nH]3)n2)C1` [Example 22, (4-Fluoro-phenyl)-{(S)-3-[5-(1H-pyrrol-2-yl)-[1,2,4]oxadiazol-3-yl]-piperidin-1-yl}-methanone], the melting point is 181 °C. Also, on rat mGluR5 receptor, the EC50 was less than 1 µM. For `O=C(c1ccc(F)cc1)N1CCCC(F)(c2nc(-c3ccc[nH]3)no2)C1` (centres unmarked) [Example 47, (4-Fluoro-phenyl)-{3-fluoro-3-[3-(1H-pyrrol-2-yl)-[1,2,4]oxadiazol-5-yl]-piperidin-1-yl}-methanone] the same measures were 114.8 to 118 °C and 1 to 10 µM. In turn, `O=C(c1ccc(F)c(F)c1)N1CCCC(c2noc(-c3ccc[nH]3)n2)C1` (centres unmarked) [Example 5, (3,4-Difluoro-phenyl)-{3-[5-(1H-pyrrol-2-yl)-[1,2,4]oxadiazol-3-yl]-piperidin-1-yl}-methanone] returned a melting point of 177 °C. Also, the EC50 at rat mGluR5 receptor was less than 1 µM. For `O=C(c1ccc(F)cc1F)N1CCCC(c2noc(-c3ccc[nH]3)n2)C1` (centres unmarked) [Example 6, (2,4-Difluoro-phenyl)-{3-[5-(1H-pyrrol-2-yl)-[1,2,4]oxadiazol-3-yl]-piperidin-1-yl}-methanone] the same measures were 151 °C and less than 1 µM. For `Cc1c[nH]c(-c2noc([C@H]3CCCN(C(=O)c4ccc(F)c(F)c4)C3)n2)c1` [Example 32, (3,4-Difluoro-phenyl)-{(S)-3-[3-(4-methyl-1H-pyrrol-2-yl)-[1,2,4]oxadiazol-5-yl]-piperidin-1-yl}-methanone] the same measures were 166 to 167 °C and less than 1 µM. For `O=C(c1ccc(F)cc1)N1CCCC(c2noc(-c3ccc[nH]3)n2)C1` (centres unmarked) [Example 7, (4-Fluoro-phenyl)-{3-[5-(1H-pyrrol-2-yl)-[1,2,4]oxadiazol-3-yl]-piperidin-1-yl}-methanone] the same measures were 158 °C and less than 1 µM. For the compound `O=C(c1ccc(F)nc1)N1CCC[C@H](c2nc(-c3cc(F)c[nH]3)no2)C1` [Example 52, (6-Fluoro-pyridin-3-yl)-{(S)-3-[3-(4-fluoro-1H-pyrrol-2-yl)-[1,2,4]oxadiazol-5-yl]-piperidin-1-yl}-methanone], at rat mGluR5 receptor, the EC50 was less than 1 µM. Consider `Cc1c[nH]c(-c2nc([C@H]3CCCN(C(=O)c4cnoc4C)C3)no2)c1` [Example 29, (5-Methyl-isoxazol-4-yl)-{(S)-3-[5-(4-methyl-1H-pyrrol-2-yl)-[1,2,4]oxadiazol-3-yl]-piperidin-1-yl}-methanone], for which the EC50 on rat mGluR5 receptor was less than 1 µM.

`Cc1c[nH]c(-c2noc([C@H]3CCCN(C(=O)c4ccnc(F)c4)C3)n2)c1` [Example 34, (2-Fluoro-pyridin-4-yl)-{(S)-3-[3-(4-methyl-1H-pyrrol-2-yl)-[1,2,4]oxadiazol-5-yl]-piperidin-1-yl}-methanone]: the EC50 on rat mGluR5 receptor was less than 1 µM. On the same count and under the same terms, with `O=C(c1ccnc(F)c1)N1CCC[C@H](c2nc(-c3cc(Cl)c[nH]3)no2)C1` [Example 66, {(S)-3-[3-(4-Chloro-1H-pyrrol-2-yl)-[1,2,4]oxadiazol-5-yl]-piperidin-1-yl}-(2-fluoro-pyridin-4-yl)-methanone] the figure was 1 to 10 µM. In the case of `O=C(c1ccncc1F)N1CCC[C@H](c2nc(-c3cc(Cl)c[nH]3)no2)C1` [Example 67, {(S)-3-[3-(4-Chloro-1H-pyrrol-2-yl)-[1,2,4]oxadiazol-5-yl]-piperidin-1-yl}-(3-fluoro-pyridin-4-yl)-methanone], the EC50 on rat mGluR5 receptor is 1 to 10 µM.

`O=C(c1ccc(F)cc1)N1CCC[C@H](c2nc(-c3cc(Cl)c[nH]3)no2)C1` [Example 43, {(S)-3-[3-(4-Chloro-1H-pyrrol-2-yl)-[1,2,4]oxadiazol-5-yl]-piperidin-1-yl}-(4-fluoro-phenyl)-methanone]: at rat mGluR5 receptor, the EC50 was less than 1 µM. With `O=C(c1ccc(F)c(F)c1)N1CCC[C@H](c2nc(-c3ccc[nH]3)no2)C1` [Example 3, (3,4-Difluoro-phenyl)-{(S)-3-[3-(1H-pyrrol-2-yl)-[1,2,4]oxadiazol-5-yl]-piperidin-1-yl}-methanone], at rat mGluR5 receptor, the EC50 is less than 1 µM.

For `O=C(c1ccc(F)nc1)N1CCC[C@H](c2nc(-c3cc(Cl)c[nH]3)no2)C1` [Example 65, {(S)-3-[3-(4-Chloro-1H-pyrrol-2-yl)-[1,2,4]oxadiazol-5-yl]-piperidin-1-yl}-(6-fluoro-pyridin-3-yl)-methanone], the EC50 on rat mGluR5 receptor was in the range of 1 to 10 µM.

In the case of `O=C(c1ccc(F)cc1)N1CCC[C@H](c2nc(-c3cc4ccccc4[nH]3)no2)C1` [Example 16, (4-Fluoro-phenyl)-{(S)-3-[3-(1H-indol-2-yl)-[1,2,4]oxadiazol-5-yl]-piperidin-1-yl}-methanone], the EC50 on rat mGluR5 receptor was in the range of 1 to 10 µM. Same read-out and setting: the same measure for `O=C(c1ccnc(F)c1)N1CCC[C@H](c2noc(-c3cc(F)c[nH]3)n2)C1` [Example 60, (2-Fluoro-pyridin-4-yl)-{(s)-3-[5-(4-fluoro-1H-pyrrol-2-yl)-[1,2,4]oxadiazol-3-yl]-piperidin-1-yl}-methanone]: less than 1 µM. In the case of `O=C(c1ccc(F)cc1)N1CCC[C@H](c2nc(-c3cc(Br)c[nH]3)no2)C1` [Example 45, {(S)-3-[3-(4-Bromo-1H-pyrrol-2-yl)-[1,2,4]oxadiazol-5-yl]-piperidin-1-yl}-(4-fluoro-phenyl)-methanone], the EC50 on rat mGluR5 receptor was less than 1 µM.

Consider `O=C(c1ccc(F)cc1F)N1CCC[C@H](c2nc(-c3ccc[nH]3)no2)C1` [Example 2, (2,4-Difluoro-phenyl)-((S)-3-[3-(1H-pyrrol-2-yl)-[1,2,4]oxadiazol-5-yl]-piperidin-1-yl)-methanone], for which the EC50 on rat mGluR5 receptor was less than 1 µM. Same read-out and setting: with `Cc1c[nH]c(-c2noc([C@H]3CCCN(C(=O)c4ccncc4F)C3)n2)c1` [Example 71, (3-Fluoro-pyridin-4-yl)-{(S)-3-[3-(4-methyl-1H-pyrrol-2-yl)-[1,2,4]oxadiazol-5-Yl]-piperidin-1-yl}-methanone] the figure was 1 to 10 µM.

Values taken from patent US20090203737A1, “Pyrrole Derivatives as Positive Allosteric Modulators of Metabotropic Receptors” (priority 2005, published 2009).
